Source: ChEMBL document CHEMBL1938312, “Design and combinatorial synthesis of a novel kinase-focused library using click chemistry-based fragment assembly” (Bioorg Med Chem Lett, 2012)
Active and inactive are the calls of the source. The calls are words filed in the database; no cut-off is given here.

Experiments:
[1] = biological target: T1, Aurora kinase A (Homo sapiens) (UniProt O14965); assay: Inhibition of Aurora A at 10 uM by colorimetric analysis
T1 sequence (whole entry): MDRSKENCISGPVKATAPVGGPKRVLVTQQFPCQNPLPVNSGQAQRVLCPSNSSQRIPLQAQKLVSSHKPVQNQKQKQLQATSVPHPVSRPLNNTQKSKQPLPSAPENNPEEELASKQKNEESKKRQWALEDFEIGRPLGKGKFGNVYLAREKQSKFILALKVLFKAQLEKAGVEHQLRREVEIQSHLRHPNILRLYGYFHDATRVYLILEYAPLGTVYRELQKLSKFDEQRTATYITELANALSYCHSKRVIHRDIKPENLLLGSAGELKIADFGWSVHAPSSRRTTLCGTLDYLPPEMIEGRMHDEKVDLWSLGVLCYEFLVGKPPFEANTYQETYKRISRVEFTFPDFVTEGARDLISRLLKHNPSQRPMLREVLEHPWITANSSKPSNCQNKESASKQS

[2] = biological target: T2, Tyrosine-protein kinase receptor TYRO3 (Homo sapiens) (UniProt Q06418); assay: Inhibition of TYRO3 at 10 uM by colorimetric analysis
T2 sequence (whole entry): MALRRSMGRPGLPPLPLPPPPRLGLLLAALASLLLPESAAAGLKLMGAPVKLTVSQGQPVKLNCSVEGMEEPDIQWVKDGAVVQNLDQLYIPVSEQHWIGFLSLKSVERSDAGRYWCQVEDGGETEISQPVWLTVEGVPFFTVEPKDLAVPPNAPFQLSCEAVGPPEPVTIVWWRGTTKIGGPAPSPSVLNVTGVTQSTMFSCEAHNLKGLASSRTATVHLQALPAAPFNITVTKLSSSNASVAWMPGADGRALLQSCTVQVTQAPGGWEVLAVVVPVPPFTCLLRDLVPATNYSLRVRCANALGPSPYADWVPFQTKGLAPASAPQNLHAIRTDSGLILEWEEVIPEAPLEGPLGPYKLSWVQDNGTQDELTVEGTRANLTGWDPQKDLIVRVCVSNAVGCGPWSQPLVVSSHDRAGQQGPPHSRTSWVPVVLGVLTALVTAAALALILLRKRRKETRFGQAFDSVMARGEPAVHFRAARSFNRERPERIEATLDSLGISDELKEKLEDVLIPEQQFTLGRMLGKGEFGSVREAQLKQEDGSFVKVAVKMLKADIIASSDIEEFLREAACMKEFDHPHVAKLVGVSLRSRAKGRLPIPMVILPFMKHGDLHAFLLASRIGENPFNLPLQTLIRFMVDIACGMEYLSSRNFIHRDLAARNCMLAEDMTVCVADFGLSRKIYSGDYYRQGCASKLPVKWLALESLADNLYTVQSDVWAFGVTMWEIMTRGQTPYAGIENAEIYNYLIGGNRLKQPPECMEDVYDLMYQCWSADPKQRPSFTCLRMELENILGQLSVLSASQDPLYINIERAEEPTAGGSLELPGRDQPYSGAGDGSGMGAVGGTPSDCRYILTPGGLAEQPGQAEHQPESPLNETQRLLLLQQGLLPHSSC

[3] = biological target: T3, Tyrosine-protein kinase JAK3 (Homo sapiens) (UniProt P52333); assay: Inhibition of JAK3 at 10 uM by colorimetric analysis
T3 sequence (whole entry): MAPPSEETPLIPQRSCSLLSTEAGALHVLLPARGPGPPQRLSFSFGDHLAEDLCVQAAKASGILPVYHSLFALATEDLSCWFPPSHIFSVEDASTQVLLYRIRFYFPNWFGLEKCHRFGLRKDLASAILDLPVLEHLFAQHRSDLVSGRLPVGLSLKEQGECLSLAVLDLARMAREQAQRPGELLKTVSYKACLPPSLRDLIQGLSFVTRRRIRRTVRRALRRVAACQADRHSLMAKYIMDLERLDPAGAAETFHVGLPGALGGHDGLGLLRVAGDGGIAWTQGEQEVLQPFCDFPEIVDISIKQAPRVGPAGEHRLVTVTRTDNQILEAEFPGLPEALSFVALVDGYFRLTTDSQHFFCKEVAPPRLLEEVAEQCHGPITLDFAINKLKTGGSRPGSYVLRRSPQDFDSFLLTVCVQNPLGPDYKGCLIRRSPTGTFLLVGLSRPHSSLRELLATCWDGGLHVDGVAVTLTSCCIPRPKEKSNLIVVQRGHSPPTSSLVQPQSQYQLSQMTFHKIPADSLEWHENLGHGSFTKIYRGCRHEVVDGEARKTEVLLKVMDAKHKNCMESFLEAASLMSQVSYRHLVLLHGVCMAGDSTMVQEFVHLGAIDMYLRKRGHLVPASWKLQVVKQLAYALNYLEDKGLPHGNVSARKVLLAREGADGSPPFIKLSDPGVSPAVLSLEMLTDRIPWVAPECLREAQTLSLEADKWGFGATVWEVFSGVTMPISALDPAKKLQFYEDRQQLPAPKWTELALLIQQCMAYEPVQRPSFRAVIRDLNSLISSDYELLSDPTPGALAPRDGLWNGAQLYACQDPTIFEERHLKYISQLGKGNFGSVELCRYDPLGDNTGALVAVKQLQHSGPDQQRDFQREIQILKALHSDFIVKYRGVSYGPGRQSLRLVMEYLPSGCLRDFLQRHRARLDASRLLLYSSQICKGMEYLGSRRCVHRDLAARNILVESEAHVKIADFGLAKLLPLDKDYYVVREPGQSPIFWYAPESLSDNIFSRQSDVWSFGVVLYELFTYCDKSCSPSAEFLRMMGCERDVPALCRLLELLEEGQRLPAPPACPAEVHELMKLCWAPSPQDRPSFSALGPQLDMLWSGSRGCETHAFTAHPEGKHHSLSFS

[4] = biological target: Vascular endothelial growth factor receptor 2 (Homo sapiens) (UniProt P35968); assay: Inhibition of KDR at 10 uM by colorimetric analysis
Sequence of Vascular endothelial growth factor receptor 2 (Homo sapiens) (P35968 whole entry): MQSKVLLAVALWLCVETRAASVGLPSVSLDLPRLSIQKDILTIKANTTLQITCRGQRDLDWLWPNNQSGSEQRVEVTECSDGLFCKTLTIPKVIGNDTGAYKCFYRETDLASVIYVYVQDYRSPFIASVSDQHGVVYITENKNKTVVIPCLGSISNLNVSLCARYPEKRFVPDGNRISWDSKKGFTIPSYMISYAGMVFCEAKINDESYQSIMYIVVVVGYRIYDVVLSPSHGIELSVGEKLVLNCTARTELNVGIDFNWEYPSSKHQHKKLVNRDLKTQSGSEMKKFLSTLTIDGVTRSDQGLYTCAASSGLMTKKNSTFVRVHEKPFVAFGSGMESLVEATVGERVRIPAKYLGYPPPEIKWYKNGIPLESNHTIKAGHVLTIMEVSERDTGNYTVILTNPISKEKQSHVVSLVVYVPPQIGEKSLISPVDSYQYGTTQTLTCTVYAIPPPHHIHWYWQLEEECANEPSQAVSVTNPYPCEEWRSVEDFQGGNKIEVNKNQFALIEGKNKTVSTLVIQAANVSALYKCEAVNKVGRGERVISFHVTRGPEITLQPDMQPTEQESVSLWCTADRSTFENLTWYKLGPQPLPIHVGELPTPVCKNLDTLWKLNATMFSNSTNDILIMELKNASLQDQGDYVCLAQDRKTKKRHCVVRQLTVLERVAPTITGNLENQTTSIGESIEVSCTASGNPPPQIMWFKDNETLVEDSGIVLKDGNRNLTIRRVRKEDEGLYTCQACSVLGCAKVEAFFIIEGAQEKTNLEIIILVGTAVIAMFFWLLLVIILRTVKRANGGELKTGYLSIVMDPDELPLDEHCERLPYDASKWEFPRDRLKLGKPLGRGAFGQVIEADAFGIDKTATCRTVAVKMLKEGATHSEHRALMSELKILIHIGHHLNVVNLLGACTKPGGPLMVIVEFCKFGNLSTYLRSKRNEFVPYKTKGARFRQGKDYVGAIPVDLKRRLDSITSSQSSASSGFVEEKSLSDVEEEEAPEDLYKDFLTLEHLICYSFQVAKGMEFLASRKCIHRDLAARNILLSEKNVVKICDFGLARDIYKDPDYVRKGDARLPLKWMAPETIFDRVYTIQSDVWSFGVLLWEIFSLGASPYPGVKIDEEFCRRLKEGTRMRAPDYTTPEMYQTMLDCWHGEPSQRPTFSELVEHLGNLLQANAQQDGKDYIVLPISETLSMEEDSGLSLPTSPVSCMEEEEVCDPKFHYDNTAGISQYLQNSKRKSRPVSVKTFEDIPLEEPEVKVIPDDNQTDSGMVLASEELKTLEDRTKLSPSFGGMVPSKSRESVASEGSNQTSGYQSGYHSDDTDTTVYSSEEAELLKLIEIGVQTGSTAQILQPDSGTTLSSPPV

[5] = biological target: T4, Serine/threonine-protein kinase 4 (Homo sapiens) (UniProt Q13043); assay: Inhibition of MST1 at 10 uM by colorimetric analysis
T4 sequence (whole entry): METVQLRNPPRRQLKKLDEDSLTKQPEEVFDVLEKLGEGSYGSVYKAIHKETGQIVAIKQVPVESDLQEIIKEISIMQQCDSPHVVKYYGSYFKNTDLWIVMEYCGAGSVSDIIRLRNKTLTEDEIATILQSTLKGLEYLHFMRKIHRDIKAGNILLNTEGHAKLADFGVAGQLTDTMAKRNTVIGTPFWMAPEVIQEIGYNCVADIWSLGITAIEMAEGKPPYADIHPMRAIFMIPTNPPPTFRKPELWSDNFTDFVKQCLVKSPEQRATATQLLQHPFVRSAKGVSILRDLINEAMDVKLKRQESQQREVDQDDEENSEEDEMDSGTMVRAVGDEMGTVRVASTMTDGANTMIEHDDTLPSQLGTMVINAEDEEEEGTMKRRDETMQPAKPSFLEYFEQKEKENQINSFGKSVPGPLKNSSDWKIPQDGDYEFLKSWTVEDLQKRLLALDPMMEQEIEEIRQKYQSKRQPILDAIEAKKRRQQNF

[6] = biological target: Serine/threonine-protein kinase PAK 4 (Homo sapiens) (UniProt O96013); assay: Inhibition of PAK4 at 10 uM by colorimetric analysis
Sequence of Serine/threonine-protein kinase PAK 4 (Homo sapiens) (O96013 whole entry, looked up): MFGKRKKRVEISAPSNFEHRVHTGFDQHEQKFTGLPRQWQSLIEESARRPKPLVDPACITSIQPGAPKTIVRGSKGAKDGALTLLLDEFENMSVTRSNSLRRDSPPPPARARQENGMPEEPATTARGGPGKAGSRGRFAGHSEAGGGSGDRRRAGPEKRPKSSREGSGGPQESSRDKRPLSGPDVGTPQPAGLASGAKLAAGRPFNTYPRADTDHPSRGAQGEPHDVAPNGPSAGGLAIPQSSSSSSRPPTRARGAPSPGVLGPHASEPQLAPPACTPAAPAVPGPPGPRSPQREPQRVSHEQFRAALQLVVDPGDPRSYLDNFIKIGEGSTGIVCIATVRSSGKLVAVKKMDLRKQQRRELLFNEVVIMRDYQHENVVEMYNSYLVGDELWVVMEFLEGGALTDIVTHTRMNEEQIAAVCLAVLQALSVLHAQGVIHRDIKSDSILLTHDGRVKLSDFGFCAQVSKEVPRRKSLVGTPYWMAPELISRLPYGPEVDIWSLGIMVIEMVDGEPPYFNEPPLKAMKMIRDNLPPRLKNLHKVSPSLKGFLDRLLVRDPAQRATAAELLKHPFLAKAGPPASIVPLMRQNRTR

inhibition [1]	inhibition [2]	inhibition [3]	inhibition [4]	inhibition [5]	inhibition [6]	SMILES
Active	inactive	inactive	inactive	Active	Active	Clc1cccc(-n2cc(-c3ccncc3)nn2)c1
Active	inactive	inactive	inactive	Active	Active	Clc1cccc(-n2nncc2-c2ccncc2)c1
Active	inactive	inactive	inactive	Active	Active	Clc1ccc(-n2cc(-c3ccncc3)nn2)cc1
Active	inactive	inactive	inactive	Active	Active	Clc1ccc(-n2nncc2-c2ccncc2)cc1
